Among the data in patent US10626112B2, “Heterocyclic sulfonamide derivative and medicine comprising same” (EA PHARMA CO., LTD., priority 2014, dated 2020) are IC50 values, retold here.

Chain of human TRPA1 (O75762 whole entry): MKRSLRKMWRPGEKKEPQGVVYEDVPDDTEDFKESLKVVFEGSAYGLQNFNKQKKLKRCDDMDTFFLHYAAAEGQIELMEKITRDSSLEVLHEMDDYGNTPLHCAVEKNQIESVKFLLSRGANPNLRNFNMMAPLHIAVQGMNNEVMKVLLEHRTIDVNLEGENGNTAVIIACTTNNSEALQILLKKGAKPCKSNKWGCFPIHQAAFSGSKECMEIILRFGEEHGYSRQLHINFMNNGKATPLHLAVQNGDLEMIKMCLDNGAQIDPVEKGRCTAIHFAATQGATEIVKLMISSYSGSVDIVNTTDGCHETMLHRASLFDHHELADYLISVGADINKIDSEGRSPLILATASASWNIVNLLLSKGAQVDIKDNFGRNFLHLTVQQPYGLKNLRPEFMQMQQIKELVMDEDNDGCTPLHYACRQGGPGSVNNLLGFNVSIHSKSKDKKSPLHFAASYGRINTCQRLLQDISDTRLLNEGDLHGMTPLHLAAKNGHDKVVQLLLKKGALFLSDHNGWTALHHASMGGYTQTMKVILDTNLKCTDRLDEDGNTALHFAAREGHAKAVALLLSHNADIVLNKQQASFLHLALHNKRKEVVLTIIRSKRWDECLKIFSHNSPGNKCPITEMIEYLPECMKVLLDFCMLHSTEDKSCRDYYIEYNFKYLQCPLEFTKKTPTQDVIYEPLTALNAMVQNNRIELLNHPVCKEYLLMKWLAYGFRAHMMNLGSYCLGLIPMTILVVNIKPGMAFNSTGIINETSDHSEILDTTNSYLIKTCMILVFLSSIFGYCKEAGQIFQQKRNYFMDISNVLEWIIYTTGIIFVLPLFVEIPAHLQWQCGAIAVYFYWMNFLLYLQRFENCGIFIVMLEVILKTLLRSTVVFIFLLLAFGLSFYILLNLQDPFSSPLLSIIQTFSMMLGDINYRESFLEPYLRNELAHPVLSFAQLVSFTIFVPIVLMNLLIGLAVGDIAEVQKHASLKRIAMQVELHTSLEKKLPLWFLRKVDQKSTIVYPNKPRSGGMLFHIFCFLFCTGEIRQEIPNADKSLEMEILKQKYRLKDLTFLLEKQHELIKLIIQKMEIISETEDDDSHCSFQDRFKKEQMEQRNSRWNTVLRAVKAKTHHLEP

For this experiment, the target named is human TRPA1 (Homo sapiens (Human), UniProt O75762). Kind of experiment: Measurement of TRPA1 antagonist activity (1): intracellular calcium increase. The experiment is classed as cell-based. The settings on record: 293T cells transfected with human TRPA1 expression plasmid; allylisothiocyanate 20 μM stimulation; intracellular calcium fluorescence; read-out: hTRPA1 IC50. The gist of the method:
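HEK293T cells transiently transfected with full-length human TRPA1, loaded with Calcium4 dye in HBSS/20 mM HEPES pH 7.2. Test compound preincubated 10 min, then allylisothiocyanate added at 20 μM final and fluorescence change followed for 5 min. IC50 from sigmoid fit of percent inhibition relative to agonist and buffer controls.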
As usually defined, the IC50 is the concentration that gives 50% inhibition. As to `O=C(NCc1cccc(OCc2ccc(C(F)(F)F)cc2)c1)[C@@H]1CCCN1S(=O)(=O)c1cc2c(F)cccc2o1` [Example 42, (2S)-1-(4-fluorobenzofuran-2-yl)sulfonyl-N-[[3-[[4-(trifluoromethyl)phenyl]methoxy]-phenyl]methyl]pyrrolidine-2-carboxamide], the IC50 was 7.1 nM. To `O=C(NCc1cccc(OCc2ccc(C(F)(F)F)cc2)c1)[C@@H]1CC=CCN1S(=O)(=O)c1cc2ccccc2o1` [Example 187, (2S)-1-(benzofuran-2-ylsulfonyl)-N-[[3-[[4-(trifluoromethyl)phenyl]methoxy]phenyl]methyl]-3,6-dihydro-2H-pyridine-2-carboxamide] belongs 71 nM. Next, `C[C@H](NS(=O)(=O)c1cc2cc(F)ccc2o1)C(=O)NCc1cccc(OCC2CCOCC2)c1` [Example 185, (2S)-2-[(5-fluorobenzofuran-2-yl)sulfonylamino]-N-[[3-(tetrahydropyran-4-ylmethoxy)phenyl]methyl]propanamide]: 250 nM; `O=C(NCc1cnnc(-c2ccc(C(F)(F)F)cc2)c1)[C@@H]1CCCN1S(=O)(=O)c1cc2ccccc2o1` [Example 208, (2S)-1-(benzofuran-2-ylsulfonyl)-N-[[6-[4-(trifluoromethyl)phenyl]-pyridazin-4-yl]methyl]pyrrolidine-2-carboxamide]: 34 nM. Next, `O=C(NCc1cc(-c2ccc(C(F)(F)F)cn2)ccn1)[C@@H]1CC=CCN1S(=O)(=O)c1cc2cc(F)ccc2o1` [Example 263, (2S)-1-(5-fluorobenzofuran-2-yl)sulfonyl-N-[[4-[5-(trifluoromethyl)-2-pyridyl]-2-pyridyl]methyl]-3,6-dihydro-2H-pyridine-2-carboxamide]: 21 nM; `N#Cc1ccc(COc2cccc(CNC(=O)[C@@H]3CCCN3S(=O)(=O)c3cc4cc(F)ccc4o3)c2)cc1` [Example 11, (2S)-N-[[3-[(4-cyanophenyl)methoxy]phenyl]methyl]-1-(5-fluorobenzofuran-2-yl)sulfonyl-pyrrolidine-2-carboxamide]: 1 nM; `C[C@H](NS(=O)(=O)c1cc2cnccc2o1)C(=O)NCc1ccnc(-c2ccc(C(F)(F)F)cc2O)c1` [Example 303, (2S)-2-(furo[3,2-c]pyridin-2-ylsulfonylamino)-N-[[2-[2-hydroxy-4-(trifluoromethyl)phenyl]-4-pyridyl]methyl]propanamide]: 42 nM.

With `O=C(NCc1cc(-c2ccc(C(F)(F)F)nc2)ccn1)[C@@H]1CCCN1S(=O)(=O)c1cc2ccccc2o1` [Example 151, (2S)-1-(benzofuran-2-ylsulfonyl)-N-[[4-[6-(trifluoromethyl)-3-pyridyl]-2-pyridyl]methyl]pyrrolidine-2-carboxamide], the IC50 turned out to be 1.9 nM. Regarding `O=C(NCc1cccc(OCc2ccncc2)c1)[C@@H]1CCCN1S(=O)(=O)c1cc2cc(F)ccc2o1` [Example 13, (2S)-1-(5-fluorobenzofuran-2-yl)sulfonyl-N-[[3-(4-pyridylmethoxy)phenyl]methyl]pyrrolidine-2-carboxamide], the IC50 amounted to 19 nM. Next, `O=C(NCc1cc(-c2ccc(C(F)(F)F)cc2)ncn1)[C@@H]1CCCN1S(=O)(=O)c1cc2cnccc2o1` [Example 270, (2S)-1-furo[3,2-c]pyridin-2-ylsulfonyl-N-[[6-[4-(trifluoromethyl)phenyl]-pyrimidin-4-yl]methyl]pyrrolidine-2-carboxamide]: 3.8 nM; `O=C(NCc1cccc(CCc2ccc(C(F)(F)F)cc2)c1)[C@@H]1CCCN1S(=O)(=O)c1cc2ccccc2o1` [Example 318, (2S)-1-(benzofuran-2-ylsulfonyl)-N-[[3-[2-[4-(trifluoromethyl)phenyl]ethyl]phenyl]methyl]pyrrolidine-2-carboxamide]: 14 nM; `O=C(NCc1cc(C(F)(F)F)ccc1Cl)[C@@H]1CCCN1S(=O)(=O)c1cc2ccccc2o1` [Example 67, (2S)-1-(benzofuran-2-ylsulfonyl)-N-[[2-chloro-5-(trifluoromethyl)phenyl]methyl]-pyrrolidine-2-carboxamide]: 9.7 nM. `CN(C)c1ccc(-c2ccc(F)c(CNC(=O)[C@@H]3CCCN3S(=O)(=O)c3cc4ccccc4o3)c2)cn1` [Example 172, (2S)-1-(benzofuran-2-ylsulfonyl)-N-[[5-[6-(dimethylamino)-3-pyridyl]-2-fluoro-phenyl]methyl]pyrrolidine-2-carboxamide]: the IC50 stood at 11 nM. To `O=C(NCc1cc(-c2ccc(C(F)(F)F)cn2)ccn1)[C@@H]1C[C@@H](O)CN1S(=O)(=O)c1cc2cc(F)ccc2o1` [Example 256, (2S,4R)-1-(5-fluorobenzofuran-2-yl)sulfonyl-4-hydroxy-N-[[4-[5-(trifluoromethyl)-2-pyridyl]-2-pyridyl]methyl]pyrrolidine-2-carboxamide] belongs 91 nM. As to `O=C(NCc1cccc(OCc2cncc(Cl)c2)c1)[C@@H]1CCCN1S(=O)(=O)c1cc2ccccc2o1` [Example 10, (2S)-1-(benzofuran-2-ylsulfonyl)-N-[[3-[(5-chloro-3-pyridyl)methoxy]-phenyl]methyl]-pyrrolidine-2-carboxamide], the IC50 turned out to be 10 nM. Next, `C[C@H](NS(=O)(=O)c1cc2cc(F)ccc2o1)C(=O)NCc1cccc(-c2ccc(C(F)(F)F)nc2)c1` [Example 106, (2S)-2-[(5-fluorobenzofuran-2-yl)sulfonylamino]-N-[[3-[6-(trifluoromethyl)-3-pyridyl]phenyl]methyl]propanamide]: 10 nM. As to “(2S)-1-(5-fluorobenzofuran-2-yl)sulfonyl-N-[[3-[[2-morpholino-4-pyridyl)-methoxy]phenyl]-methyl]pyrrolidine-2-carboxamide [Example 18]”, the IC50 was found to be 12 nM. With `O=C(NCc1cccc(OCc2cccc(C(F)(F)F)n2)c1)[C@@H]1CCCN1S(=O)(=O)c1cc2cc(F)ccc2o1` [Example 25, (2S)-1-(5-fluorobenzofuran-2-yl)sulfonyl-N-[[3-[[6-(trifluoromethyl)-2-pyridyl]methoxy]phenyl]-methyl]pyrrolidine-2-carboxamide], the IC50 was determined as 11 nM. Turning to `O=C(NCc1cc(-c2ccc(C(F)(F)F)cn2)ccn1)[C@@H]1C[C@@H]2C[C@@H]2N1S(=O)(=O)c1cc2cc(F)ccc2o1` [Example 259, (1S,3S,5S)-4-(5-fluorobenzofuran-2-yl)sulfonyl-N-[[4-[5-(trifluoromethyl)-2-pyridyl]-2-pyridyl]methyl]-4-azabicyclo[3.1.0]hexane-3-carboxamide], the IC50 came to 1.2 nM. With `CN(C(=O)OC(C)(C)C)c1ccc(-c2ccc(F)c(CNC(=O)C3CCCN3S(=O)(=O)c3cc4ccccc4o3)c2)cn1` [Example 175, tert-butyl N-[5-[3-[[[(2S)-1-benzofuran-2-ylsulfonyl)pyrrolidine-2-carbonyl]amino]methyl]-4-fluoro-phenyl]-2-pyridyl]-N-methylcarbamate], the IC50 was found to be 13 nM. Next, `O=C(NCc1ccc(-c2cccc(C(F)(F)F)c2)cc1)[C@@H]1CCCN1S(=O)(=O)c1cc2ccccc2o1` [Example 166, (2S)-1-(benzofuran-2-ylsulfonyl)-N-[[4-[3-(trifluoromethyl)phenyl]-phenyl]methyl]pyrrolidine-2-carboxamide]: 260 nM. Next, `N#Cc1ccc(-c2cc(CNC(=O)[C@@H]3CCCN3S(=O)(=O)c3cc4ccccc4o3)ccn2)cc1` [Example 117, (2S)-1-(benzofuran-2-ylsulfonyl)-N-[[2-(4-cyanophenyl)-4-pyridyl]methyl]pyrrolidine-2-carboxamide]: 14 nM; `C[C@H](NS(=O)(=O)c1cc2cc(F)ccc2o1)C(=O)NCc1cc(-c2ccc(OC(F)(F)F)cc2)ccn1` [Example 239, (2S)-2-[(5-fluorobenzofuran-2-yl)sulfonylamino]-N-[[4-[4-(trifluoromethoxy)phenyl]-2-pyridyl]methyl]propanamide]: 17 nM.

As for `O=C(NCc1cccc(-c2ccc(C(F)(F)F)nc2)c1)[C@@H]1CCN1S(=O)(=O)c1cc2cc(F)ccc2o1` [Example 100, (2S)-1-(5-fluorobenzofuran-2-yl)sulfonyl-N-[[3-[6-(trifluoromethyl)-3-pyridyl]phenyl]methyl]azetidine-2-carboxamide], the IC50 was found to be 1.6 nM.

With `C[C@H](NS(=O)(=O)c1cc2ccccc2o1)C(=O)NCc1cc(-c2ccc(C(F)(F)F)cc2)ncn1` [Example 104, (2S)-2-(benzofuran-2-ylsulfonylamino)-N-[[6-[4-(trifluoromethyl)phenyl]pyrimidin-4-yl]methyl]propanamide], the IC50 stood at 14 nM. In the case of `O=C(NCc1cccc(CNc2ccc(C(F)(F)F)cn2)c1)[C@@H]1CCCN1S(=O)(=O)c1cc2ccccc2o1` [Example 320, (2S)-1-(benzofuran-2-ylsulfonyl)-N-[[3-[[[5-(trifluoromethyl)-2-pyridyl]amino]methyl]phenyl]methyl]pyrrolidine-2-carboxamide], the IC50 is 920 nM. To `O=C(NCc1cc(-c2ccc(C(F)(F)F)cc2O)ncn1)[C@@H]1CCCN1S(=O)(=O)c1cc2ccccc2o1` [Example 288, (2S)-1-(benzofuran-2-ylsulfonyl)-N-[[6-[2-hydroxy-4-(trifluoromethyl)phenyl]pyrimidin-4-yl]methyl]pyrrolidine-2-carboxamide] belongs 2.5 nM; to `O=C(NCc1cccc(OCc2ccc(C(F)(F)F)nc2)c1)[C@@H]1CCCN1S(=O)(=O)c1cc2ccccc2o1` [Example 8, (2S)-1-(benzofuran-2-ylsulfonyl)-N-[[3-[[6-(trifluoromethyl)-3-pyridyl]methoxy]phenyl]-methyl]pyrrolidine-2-carboxamide], 6.2 nM. Regarding `O=C(NCc1cccc(OCC2CCOCC2)c1)[C@@H]1CCCN1S(=O)(=O)c1cc2cc(F)ccc2o1` [Example 30, (2S)-1-(5-fluorobenzofuran-2-yl)sulfonyl-N-[[3-(tetrahydropyran-4-ylmethoxy)phenyl]-methyl]pyrrolidine-2-carboxamide], the IC50 came to 8.3 nM.
